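Interpolation was linear, between the two tested concentrations surrounding the appropriate level; five concentrations were tested over 48 hours in 96-well plates. GI50 marks 50% less growth. Definition used: TGI = concentration required for complete inhibition of growth.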
How the values were obtained:
Assay in all cases: inhibition of tumour cell growth, NCI panel, 48 h
A498 renal = system: A498 renal
CCRF-CEM leukemia = system: CCRF-CEM leukemia
EKVX NSCLC = system: EKVX NSCLC
HCC-2998 colon = system: HCC-2998 colon
HT29 colon = system: HT29 colon
NCI-H226 lung = system: NCI-H226 lung
NCI/ADR-RES ovarian = system: NCI/ADR-RES ovarian
M14 melanoma = system: M14 melanoma
SR leukemia = system: SR leukemia
TK-10 renal = system: TK-10 renal

Compound	TGI (A498 renal) [µM]	TGI (CCRF-CEM leukemia) [µM]	TGI (EKVX NSCLC) [µM]	TGI (HCC-2998 colon) [µM]	TGI (HT29 colon) [µM]	TGI (NCI-H226 lung) [µM]	TGI (NCI/ADR-RES ovarian) [µM]	TGI (M14 melanoma) [µM]	TGI (SR leukemia) [µM]	TGI (TK-10 renal) [µM]	GI50 (A498 renal) [µM]	GI50 (CCRF-CEM leukemia) [µM]	GI50 (EKVX NSCLC) [µM]	GI50 (HCC-2998 colon) [µM]	GI50 (HT29 colon) [µM]	GI50 (NCI-H226 lung) [µM]	GI50 (NCI/ADR-RES ovarian) [µM]	GI50 (SR leukemia) [µM]	GI50 (TK-10 renal) [µM]	GI50 (M14 melanoma) [µM]
Cc1cccc2nc3c(C(=O)NCCN(C)C)cccc3cc12	3.48	5.41	7.06	5.36	4.54	4.65	6.23													
CNC(=O)OC(C)CN1c2ccccc2Sc2ccc(Cl)cc21 (stereo not drawn)	> 10	> 10	> 10	> 10	> 10	> 10	> 10	> 10	> 10	> 10										
CCS(=O)(=O)Nc1ccc(Nc2c3ccccc3nc3ccccc23)c(OC)c1	2.28			9.3	6.56	3.19	20.6													
COc1cc(C2C(C(=O)O)=C(CO)Oc3cc4c(cc32)OCO4)cc(OC)c1O (stereo not drawn)		> 100	> 100		> 100			> 100		> 100										
CCOC(=O)CSc1nc(N)c2c(-c3ccc(OC)c(OC)c3)c3c(nc2n1)CCCC3		> 100	> 100		> 100		> 100	> 100	> 100	> 100										
CC1SC(c2ccccc2)N(CCc2cccs2)C1=O (stereo not drawn)	14.2	35.2	12.7	16.4	15.2	26.4	21.1		16.4	26	2.63	3.26	2.77	4.4	4.03	6.15	3.12	3.06	4.05	
COc1ccc2nc(-c3ccc(-c4noc(-c5cc(OC)c(OC)c(OC)c5)n4)cc3)[nH]c2c1	> 100	> 100	84.9	> 100	15.2	81.4	23.6	22.7		13	28	2.2	26.2	35.5	2.7	22.7	3.32		4.62	5.47
CCOC(=O)c1nc2ccc(Cl)cc2c2c1Cc1ccccc1-2			> 100	> 100		> 100		> 100	> 100	> 100										
CC(=O)Nc1cc([As](=O)(O)O)ccc1O	> 100	> 100	> 100	> 100	> 100	> 100	> 100	> 100	> 100	> 100										
CN(C)CC(=O)Nc1ccc(Cn2nnc3c2C(=O)c2nnn(Cc4ccc(NC(=O)CN(C)C)cc4)c2C3=O)cc1	2.29	0.747		0.37		0.444	> 100	0.284		7.58	1.07	0.204		0.162		0.209	> 100		2.86	0.14
COc1ccc(/C(=C2/O[C@@H]([C@H]3COC(C)(C)O3)[C@H]3OC(C)(C)O[C@@H]23)c2cc(OC)c(OC)c(OC)c2)cc1O	97.4	> 100	> 100	80.4	52	> 100	8.85		> 100	86.3	32.1	5.45	37.4	31.1	26.5	64.7	3.11	6.1	36.6	
CN1CC[C@@]2(c3cccc(O)c3)CC(=O)/C(=C/c3ccccc3)[C@H]1C2	30.4	> 27.7	28.7	25	13.5	42.5	24.5	30.4	7.5	29.2										
COc1ccc2nc(N/N=C/C(C)=N/Nc3cc(C)c4cc(OC)ccc4n3)cc(C)c2c1	> 80.9	5.45	40.2	47.1	28.7	53.3	46.1	80.2	12.8	69.4										
